From US20220071944A1, “Combination Treatment for Solid Tumors Using Docetaxel and a CYP3A Inhibitor” (Modra Pharmaceuticals B.V., priority 2018, published 2022)
Like-named read-outs stand apart in the source and are kept apart here.

What was measured:
[1] = every three weeks IV; cited from earlier work
[2] = IV docetaxel AUC in mCRPC vs other tumors (De Vries Schultink et al. meta-analysis); format: in vivo, human
[3] = Weekly intravenous docetaxel 35 mg/m2 pharmacokinetics (Baker et al. 2004); format: in vivo, human; settings: 35 mg/m2 in 0.5 h vs oral in patients with solid tumors (not prostate)
[4] = weekly docetaxel 35 mg/m2 as 0.5 h intravenous infusion; cited from earlier work
[5] = Phase IB/IIA trial M17DOC in mCRPC: docetaxel plasma pharmacokinetics; set-up: species or system human; settings: in vivo, po
Method: A multicenter clinical phase IB/IIA study was conducted in mCRPC (M17DOC), wherein ModraDoc006, an oral docetaxel formulation was combined with ritonavir (ModraDoc006/r), in metastasized castration-resistant prostate cancer (mCRPC).
The study included patients diagnosed with metastasized castration-resistant prostate cancer (mCRPC), dosed in a bi-daily once weekly (BIDW) dosing schedule at 4 dose levels (see table below).

In the case of CC(=O)O[C@@]12CO[C@@H]1C[C@H](O)[C@@]1(C)C(=O)[C@H](O)C3=C(C)[C@@H](OC(=O)[C@H](O)[C@@H](NC(=O)OC(C)(C)C)c4ccccc4)C[C@@](O)([C@@H](OC(=O)c4ccccc4)[C@H]21)C3(C)C [docetaxel], the “q3w AUC of IV docetaxel in mCRPC patients” value [1] is given as 1.82 µg·h/mL, the “ratio of AUCs for IV docetaxel in mCPRC patients vs other tumors” value ([2]; 1820/3300) is given as 55% and the AUC ([2]; male, human, in vivo, iv, weekly equivalent, mCRPC, read-out: weekly AUC of IV docetaxel in mCRPC patients (q3w AUC divided by 3)) is given as roughly 0.6 µg·h/mL. The “CMAX of intravenous docetaxel relative to oral ModraDoc006/r 30-20/100-100” value [3] was “ten-fold higher”, the AUC [4] was 0.48 ± 0.41 µg·h/mL and the CMAX [4] was 1930 ± 600 ng/mL. For the same compound, the “docetaxel clearance in mCRPC patients vs patients with other solid tumors” value [5] was “higher clearance”.
